For 14 compounds, EC50, inhibition and inhibition in vivo results are on record in ChEMBL document CHEMBL3600312, “Novel Oxazolidinone-Based Peroxisome Proliferator Activated Receptor Agonists: Molecular Modeling, Synthesis, and Biological Evaluation” (J Med Chem, 2015).

The EC50 is the concentration at which the effect is half-maximal. Lower therefore signals greater potency. A word on the inhibition in vivo: it is the percentage by which the read-out fell short of the control. Low values mean a response near the control, high ones a response far below the control.

Active and inactive are the calls of the source. The rule behind the calls is not given here.

For assay [1], the target named is T1, Peroxisome proliferator-activated receptor alpha (Homo sapiens, UniProt Q07869).
T1 sequence (Q07869 whole entry): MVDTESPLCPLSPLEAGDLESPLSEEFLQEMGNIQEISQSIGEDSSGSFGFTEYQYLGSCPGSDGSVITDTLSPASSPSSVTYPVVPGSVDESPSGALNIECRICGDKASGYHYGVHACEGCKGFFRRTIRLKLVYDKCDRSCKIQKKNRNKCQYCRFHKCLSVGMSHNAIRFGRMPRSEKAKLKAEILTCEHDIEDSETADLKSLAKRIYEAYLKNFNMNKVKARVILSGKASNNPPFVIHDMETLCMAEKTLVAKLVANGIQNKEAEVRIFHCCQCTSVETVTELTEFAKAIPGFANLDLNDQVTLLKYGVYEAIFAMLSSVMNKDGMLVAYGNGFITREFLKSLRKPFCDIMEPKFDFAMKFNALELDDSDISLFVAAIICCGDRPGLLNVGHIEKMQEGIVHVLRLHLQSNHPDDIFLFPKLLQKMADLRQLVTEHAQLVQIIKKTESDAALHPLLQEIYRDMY
Description: Agonist activity at human PPARalpha transfected in human MCF7 cells after 16 hrs by luciferase reporter gene assay. Format: cell-based.

Assay [2] concerns the target T2, Peroxisome proliferator-activated receptor gamma (Homo sapiens, UniProt P37231).
T2 sequence (P37231 whole entry): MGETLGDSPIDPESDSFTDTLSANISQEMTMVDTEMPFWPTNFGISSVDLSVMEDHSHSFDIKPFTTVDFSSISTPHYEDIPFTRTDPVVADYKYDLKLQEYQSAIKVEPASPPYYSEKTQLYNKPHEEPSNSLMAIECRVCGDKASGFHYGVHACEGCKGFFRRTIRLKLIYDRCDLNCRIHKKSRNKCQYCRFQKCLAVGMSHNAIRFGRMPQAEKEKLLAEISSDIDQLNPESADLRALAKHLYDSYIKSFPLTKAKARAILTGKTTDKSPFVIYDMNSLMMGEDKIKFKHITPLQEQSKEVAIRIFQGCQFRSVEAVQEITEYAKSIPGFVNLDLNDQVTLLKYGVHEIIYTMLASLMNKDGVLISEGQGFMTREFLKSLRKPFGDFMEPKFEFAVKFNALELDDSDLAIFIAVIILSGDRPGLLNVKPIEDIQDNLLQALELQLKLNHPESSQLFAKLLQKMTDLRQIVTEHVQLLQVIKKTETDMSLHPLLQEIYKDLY
The assay can be described thus: Agonist activity at human PPARgamma transfected in human MCF7 cells after 16 hrs by luciferase reporter gene assay. Format: cell-based. (In general: A reporter such as luciferase makes a cellular process visible.)

Assay [3] relates to Rattus norvegicus. Description: Inhibition of food intake in ip dosed 24 hrs food derived obese Wistar rat after 30 to 240 mins. Type of assay: functional, organism-based.
Assay [4] deals with Rattus norvegicus. The assay can be described thus: Inhibition of food intake in 24 hrs food derived obese Wistar rat at 3 mg/kg, ip measured up to 120 mins relative to vehicle-treated control. Type of assay: functional.
The test system of assay [5] is Rattus norvegicus. The assay can be described thus: Inhibition of food intake in 24 hrs food derived obese Wistar rat at 3 mg/kg, ip after 240 mins. Format: functional, organism-based.
For assay [6], the system named is Rattus norvegicus. Description: Inhibition of food intake in ip dosed 24 hrs food derived obese Wistar rat after 24 hrs. Format: functional, organism-based.

`CC(C)(C)c1ccc(CNC(=O)c2ccc(NC(=O)c3cccc(CN4C(=O)OC[C@@H]4Cc4ccccc4)c3)cc2)cc1` came in with an EC50 in assay [1] of 756 nM.

Turning to `CCCCCC(=O)Nc1ccc(C(=O)Nc2cccc(C[C@H](C)C(=O)N3C(=O)OC[C@H]3Cc3ccccc3)c2)cc1`, the EC50 in assay [1] stood at 1920 nM.

Regarding `O=C(NCc1ccccc1)c1ccc(NC(=O)c2cccc(CN3C(=O)OC[C@H]3Cc3ccccc3)c2)cc1`, the EC50 in assay [1] and in assay [2] was greater than 100000 nM in each case.

On to `CC(C)(C)c1ccc(CNC(=O)c2ccc(NC(=O)c3cccc(CN4C(=O)OC[C@H]4Cc4ccccc4)c3)cc2)cc1`, for which, in assay [3], the inhibition result was “Dose-dependent effect”. The inhibition in vivo at 3 mg/kg in assay [4] came to 50%. In assay [5], the inhibition result is “inactive”.

In assay [1], `O=C(Nc1ccc(C(=O)NC2CC2)cc1)c1cccc(CN2C(=O)OC[C@H]2Cc2ccccc2)c1` displayed a concentration giving a half-maximal response (EC50) of 1980 nM.

Regarding `O=C(NCC1CCCCC1)c1ccc(NC(=O)c2cccc(CN3C(=O)OC[C@H]3Cc3ccccc3)c2)cc1`, the EC50 in assay [1] and in assay [2] was greater than 100000 nM each time.

Turning to `CCCCCNC(=O)c1ccc(NC(=O)c2cccc(CN3C(=O)OC[C@H]3Cc3ccccc3)c2)cc1`, the inhibition result in assay [3] and in assay [6] was “Dose-dependent effect” each time.

For `C[C@@H](Cc1cccc(NC(=O)c2ccc(NC(=O)Cc3ccc(C(C)(C)C)cc3)cc2)c1)C(=O)N1C(=O)OC[C@H]1Cc1ccccc1`, the midpoint of the response in assay [1], the EC50, lay at 966 nM.

`O=C(NCc1ccc(C(F)(F)F)cc1)c1ccc(NC(=O)c2cccc(CN3C(=O)OC[C@@H]3Cc3ccccc3)c2)cc1` yielded an EC50 in assay [1] greater than 100000 nM.

As for `CCCCCCCCCCCCNC(=O)c1ccc(NC(=O)c2cccc(CN3C(=O)OC[C@H]3Cc3ccccc3)c2)cc1`, the figures for the EC50 in assay [1] and in assay [2] were 6620 nM and greater than 100000 nM, respectively.

For the compound `CCCCCC(=O)Nc1ccc(C(=O)Nc2cccc(C[C@H](C)C(=O)O)c2)cc1`, the response in assay [1] was half-maximal at 981 nM (EC50).

In assay [1], `CCCCCNC(=O)c1ccc(NC(=O)c2cccc(CN3C(=O)OC[C@@H]3Cc3ccccc3)c2)cc1` returned an EC50 greater than 100000 nM.

The compound `C[C@@H](Cc1cccc(NC(=O)c2ccc(NC(=O)Cc3ccc(C(C)(C)C)cc3)cc2)c1)C(=O)O` registered an EC50 in assay [1] of 866 nM.

On to `O=C(NCc1ccc(C(F)(F)F)cc1)c1ccc(NC(=O)c2cccc(CN3C(=O)OC[C@H]3Cc3ccccc3)c2)cc1`, for which the EC50 in assay [1] and in assay [2] was greater than 100000 nM throughout.
